The text below walks through data of publication PMC11554538, “Region-independent active CNS net uptake of marketed H^+/OC antiporter system substrates” (Frontiers in Cellular Neuroscience, 2024).

SMILES strings stand for the structures. Counter-ions that a name gives are not always drawn. Like-named read-outs stand apart in the source and are kept apart here.

For data set [1] the following is noted: cited from earlier work.
Data set [2] can be described thus: in vitro. The settings on record: rat.
Data set [3] is described as follows: in vitro. To be noted: rat. This is another data set of the same source.
For data set [4] the following is noted: male, Sprague-Dawley, rat, in vivo.
For data set [5] the following is noted: rat, 5 h.
Data set [6] can be described thus: in vitro. To be noted: rat; for fraction unbound at 6 h: pH 7.4, Unbound fraction in plasma, fu,plasma. The method, then:
Equilibrium dialysis was employed to determine the fraction of unbound drug in plasma (fu,plasma), homogenates of whole-brain (fu,brain) and the CNS regions of interest (fu,ROI) including the frontal cortex, parietal cortex, cerebellum, striatum, hippocampus, and spinal cord. […] Briefly, a Teflon 96-well plate (model HTD96b, HTDialysis LLC, Gales Ferry, CT, USA) with a cellulose membrane with a 12–14 kDa molecular weight cutoff was used. The cellulose membrane was treated according to the recommendations from the manufacturer before starting the experiment (HTDialysis LLC, Gales Ferry, CT, USA). Fresh plasma (n=3 rats per drug) was obtained on the day of the experiment and the pH of the plasma was adjusted to 7.40 using H3PO4. […] Whole brain and CNS regions of interest (n = 3–4 rats per drug) were homogenized in 1:9 (w:v) PBS pH 7.40. Diluted brain samples were individually spiked to a final concentration of 1,000 nM. Hundred μL of undiluted spiked plasma samples or homogenates were dialyzed against equal volumes of PBS, pH 7.40, for 6 h at 37°C at 200 rpm in an incubator with orbital shaking (MaxQ4450 Thermo Fisher Scientific, NinoLab, Sweden). One to three technical replicates were tested per biological replicate. Drug recovery and thermostability in plasma and brain were analyzed in each experiment by sampling spiked samples before and after the 6-h incubation. […] At the end of the 6-h incubation, 50 μL PBS sample from the receiver chambers was transferred into a Corning® 0.33 mL round-bottom polypropylene 96-well plate (VWR, Stockholm, Sweden) containing 50 μL blank plasma or 1:9 (w:v) brain homogenate using a multichannel pipette. Immediately after this step, 50 μL spiked plasma or brain homogenate was taken from the donor chambers and added to the same 96-well plate containing 50 μL of blank PBS. The 96-well plate was sealed with aluminum film, vortexed and stored at −20°C pending bioanalysis. The fraction of unbound drug in plasma was assessed as a ratio between buffer and plasma concentrations. The unbound fraction of drug in the diluted (D) CNS tissue homogenate (fu,hD) was calculated as: […]

For data set [7] the following is noted: rat, in vivo; for Cu,brainISF,ss (unbound steady-state concentration in brain interstitial fluid): male, Sprague-Dawley.
The nature of data set [8]: in vivo. To be noted: male, Sprague-Dawley, rat.
A short description of data set [9]: in vivo. To be noted: male, Sprague-Dawley, rat, iv.
Where [10] appears, read: brain homogenate, pH 7.4, Unbound fraction fu,ROI (fu,brain).
Where [11] appears, read: tissue homogenate, pH 7.4, Unbound fraction fu,ROI.
Where [12] appears, read: cerebral microdialysis, ref Kitamura et al., 2016.

A word on the fraction unbound: it is free concentration divided by total concentration. A high value points to much free substance. Regarding `CC(NC(C)(C)C)C(=O)c1cccc(Cl)c1` (centres unmarked) [Bupropion, bupropion hydrochloride], the “Reported Kp,uu” value in [1] (cerebral microdialysis, ref Cremers et al., 2016) was 1.9 (Cremers et al., [2016]). In addition, the Kp uu at 5 h in “in vitro [2]” (Kp,uu,cell,obs (observed unbound brain intracellular-to-extracellular concentration ratio)) came to 3.12. Moreover, the fraction unbound at 6 h, 1000 nM in “in vitro [3]” (setting [10]) was 0.209 ± 0.031; in the data set “in vitro [3]” (setting [11]), 0.142 ± 0.004. In addition, the “Ctot,CSF,ss (total CSF concentration at steady state, assumed equal to unbound)” value in data set [4] (4 h) came to 21.9±5.6. In data set [5], the “Kp,uu,cell,obs (observed unbound brain intracellular-to-extracellular concentration ratio)” value amounted to 3.1. The “Unbound fraction in plasma, fu,plasma” value in the data set “in vitro [6]” (6 h, pH 7.4) is 0.327 ± 0.068. The fraction unbound at 6 h in the data set “in vitro [6]” (plasma) turned out to be 0.33. Besides, the “Cu,brainISF,ss (unbound steady-state concentration in brain interstitial fluid)” value in data set [7] (4 h) is given as 9.3±4.6 ng/g brain. The “Kp,uu,ROI (unbound ROI-to-plasma concentration ratio)” value in [7] is given as “exceeding unity”.
With `COc1ccc(CN(CCN(C)C)c2ccccn2)cc1` [Pyrilamine, Pyrilamine maleate], in [1] (setting [12]), the “Reported Kp,uu” value was 2.50 (Kitamura et al., [2016]). In “in vitro [2]”, this compound showed a Kp uu at 5 h of 1.88. The fraction unbound at 6 h, 1000 nM in the data set “in vitro [3]” (setting [10]) was 0.093 ± 0.012; in the data set “in vitro [3]” (setting [11]) it was 0.103 ± 0.013. Moreover, the “Ctot,CSF,ss (total CSF concentration at steady state, assumed equal to unbound)” value in data set [4] (4 h) is listed as 7.7±1.9. The “Difference between mean Kp,uu,ROI in the whole brain and Kp,uu,CSF” value in data set [4] (4 h) is 2.8 fold. In the data set “in vitro [6]” (plasma), the fraction unbound at 6 h came to 0.386 ± 0.093. Moreover, in data set [7] (4 h), the “Cu,brainISF,ss (unbound steady-state concentration in brain interstitial fluid)” value is listed as 21.6±2.0 ng/g brain. The “Kp,uu,ROI (unbound ROI-to-plasma concentration ratio)” value in [7] is recorded as “exceeding unity”.
Regarding `COc1cccc(C2(O)CCCCC2CN(C)C)c1` (centres unmarked) [Tramadol, tramadol hydrochloride], the “Reported Kp,uu” value in data set [1] (in vivo) was 2.90 (Kitamura et al., [2016]) 2.30 (Kitamura et al., [2014]). Further, the Kp uu at 4 h in “in vivo [8]” came to 1.49 ± 0.49. For the same compound, in “in vitro [2]”, the Kp uu came out at 2.01. In the data set “in vitro [3]” (setting [10]), the fraction unbound was found to be 0.496 ± 0.128. In “in vitro [3]” (setting [11]), this compound showed a fraction unbound of 0.462 ± 0.064. For the same compound, the “Ctot,CSF,ss (total CSF concentration at steady state, assumed equal to unbound)” value in data set [4] turned out to be 47.7±8.2. The compound further showed a fraction unbound at 6 h in the data set “in vitro [6]” (undiluted rat plasma pH 7.40, 500 nM (memantine 500 ng/mL), 6 h, 37°C, mean ± SD) of 0.827 ± 0.027. Besides, in data set [7], the “Cu,brainISF,ss (unbound steady-state concentration in brain interstitial fluid)” value is reported as 95.0±9.4 and the “Kp,uu,ROI (unbound ROI-to-plasma concentration ratio)” value is given as “exceeding unity”.
As for `CC12CC3CC(C)(C1)CC(N)(C3)C2` [Memantine, memantine hydrochloride], the “Reported Kp,uu” value in data set [1] (cerebral microdialysis, ref Kawase et al., 2021a) was 2.03; in [1] (setting [12]), 1.80. The Kp at 4 h in “in vivo [9]” is 41.7. In the data set “in vitro [2]”, the Kp uu at 5 h stood at 2.11. This compound also came in with a fraction unbound at 6 h in “in vitro [6]” (plasma) of 0.543 ± 0.037. Moreover, in data set [7] (4 h), the “Cu,brainISF,ss (unbound steady-state concentration in brain interstitial fluid)” value is listed as 194.3±38.5 ng/g brain. For the same compound, in data set [7], the “Kp,uu,ROI (unbound ROI-to-plasma concentration ratio)” value was “exceeding unity”.
